The results in this text go back to patent US7381546B2, “Polyketides and their synthesis and use” (Biotica Technology Limited, priority 1998, dated 2008).

The subject of the series is human lymphoblastoid cell lines 536. Nature of the series: Tritiated thymidine incorporation (DNA synthesis) bioassay in 536 cells. The series is classed as cell-based. Conditions: for IC50: after 24 and 48 hours drug exposure, radiolabelled thymidine incorporation (FIG. 4), read-out: ID50% concentration-dependent inhibition of DNA synthesis. The method, then:
Rapamycin induces a specific cell cycle arrest in G1 in the cell line 536, which is a human B lymphocytic line immortalised by Epstein Barr virus infection. The potency of each analogue was compared to that of rapamycin using the 536 cells as a bioassay. The 536 cells (obtained from the human genetic mutant cell repository, Camden, N.J., USA) were cultured in Iscoves medium supplemented with 10% fetal calf serum. For bioassay, 536 cells were seeded into 96 well microtitre plates at 10,000 per well in 100 μl of growth medium. Drug stocks of 1 mM in DMSO were prepared and further dilutions were made to give a constant final concentration of 0.1% DMSO in growth medium. Control cultures were treated with 0.1% DMSO in growth medium; experimental cultures received a final concentration of 10^−7M, 10^−8M, 10^−9M or 10^−10M rapamycin or rapamycin analogue. Each culture was set up in triplicate and replicate plates were labelled with 1 μCi tritiated thymidine (Amersham International, specific activity 70 Ci/mM) per well for 3 h at either Oh; 24 h; or 48 h incubation with drugs. At the respective time points the cultures were harvested onto glass fibre paper to trap the DNA following water lysis; free nucleotides were washed away. Radioactivity incorporated into the filter discs/trapped DNA was counted in a Packard scintillation counter using biodegradable scintillation fluid.
The dose response of human lymphoblastoid cell lines 536 was measured. […] This implies that none of the compounds were toxic to the 536 cell line.
For orientation: Uptake of a labelled nucleoside into DNA is a usual measure of proliferation.

Read-outs that look alike come from different tables or passages of the source.

For `COC1CC2CCC(C)C(O)(O2)C(=O)C(=O)N2CCCC2C(=O)OC(C(C)CC2CCC(O)C(OC)C2)CC(=O)C(C)/C=C(\C)C(O)C(OC)C(=O)C(C)CC(C)/C=C/C=C/C=C/1C` (stereo not shown) [prolylrapamycin], the IC50 worked out at 3 nM. In the case of 4-hydroxy-prolyl-26-demethoxy-rapamycin, the “effect on DNA synthesis (mean cpm of radiolabelled thymidine incorporated)” value (0-3 h drug exposure, up to 100 nM (FIG. 3)) is listed as “no appreciable effect”. Moreover, the “inhibition of DNA synthesis” value (at 100 nM, after 24 and 48 hours (FIG. 4)) is less than 50%. For the compound `CO[C@H]1C[C@@H]2CC[C@@H](C)[C@@](O)(O2)C(=O)C(=O)N2CCCC[C@H]2C(=O)O[C@H]([C@H](C)C[C@@H]2CC[C@@H](O)[C@H](OC)C2)CC(=O)[C@H](C)/C=C(\C)[C@@H](O)[C@@H](OC)C(=O)[C@H](C)C[C@H](C)/C=C/C=C/C=C/1C` [rapamycin, reference compound], where the note is “Homo sapiens, Lymphoblastoid cell”, the IC50 was 1 nM.
